{
  "source": "paper PMC6270420",
  "about": "“Antibacterial Activity of Salicylanilide 4-(Trifluoromethyl)benzoates” (Molecules, 2013)",
  "key": {"[1]": {"test_system": "Mycobacterium avium 330/88", "test": "Antimycobacterial MIC micromethod", "format": "cell-based"}, "M. kansasii": {"test_system": "M. kansasii", "test": "Antimycobacterial MIC, summary for M. kansasii", "format": "cell-based", "conditions": "Mycobacterium kansasii, both strains; read-out: MICs towards M. kansasii"}, "[2]": {"test_system": "Mycobacterium tuberculosis 331/88 (H37Rv)", "test": "Antimycobacterial MIC micromethod, Šula's medium", "format": "cell-based", "conditions": "read-out: MIC Mtb. 331/88"}, "[3]": {"test_system": "M. kansasii 6509/96 (clinically isolated strain)", "test": "Antimycobacterial MIC micromethod", "format": "cell-based", "conditions": "Mycobacterium kansasii, read-out: MIC M. kansasii 6509/96"}, "[4]": {"test_system": "Mycobacterium tuberculosis, M. avium and M. kansasii", "test": "Antimycobacterial MIC, summary over all mycobacterial strains", "format": "cell-based", "conditions": "at 1,000 µmol/L; mycobacteria other than M. kansasii"}, "[5]": {"test_system": "eight Gram-positive and Gram-negative strains", "test": "Antibacterial microdilution, summary over eight strains", "format": "cell-based", "conditions": "read-out: MIC, antibacterial action", "experimental": "The in vitro antibacterial activity was assayed against eight Gram-positive and Gram-negative strains: Staphylococcus aureus CCM 4516/08, methicillin-resistant Staphylococcus aureus H 5996/08 (MRSA), Staphylococcus epidermidis H 6966/08, Enterococcus sp. J 14365/08; Escherichia coli CCM 4517, Klebsiella pneumoniae D 11750/08, ESBL-positive Klebsiella pneumoniae J 14368/08, and Pseudomonas aeruginosa CCM 1961.\nThe microdilution broth method modified according to standard M07-A07 in Mueller-Hinton broth (HiMedia Laboratories, Mumbai, India) adjusted to pH 7.4 (±0.2) was used. The tested compounds were dissolved in DMSO to the final concentrations ranging from […]. Benzylpenicillin (penicillin G) was used as a comparative drug. Bacterial inoculum in sterile water was prepared to match 0.5 McFarland scale ([…]). The minimum inhibitory concentrations were assayed as 90% (IC90) or higher reduction of growth when compared to the control. The determination of results was performed visually and spectrophotometrically (at 540 nm). The values of MICs were determined after 24 and 48 h of incubation in the darkness at 35 °C (±0.1) in a humid atmosphere."}, "[6]": {"test_system": "Mycobacterium kansasii 235/80", "test": "Antimycobacterial MIC micromethod", "format": "cell-based", "conditions": "read-out: MIC M. kansasii 235/80"}, "HepG2 cells": {"test_system": "HepG2 cells", "test": "Cytotoxicity evaluation (CellTiter 96 MTS)", "format": "cell-based, human", "conditions": "Homo sapiens, HepG2; 24 h, cytotoxicity; read-out: IC50 HepG2", "experimental": "Seven esters and their parent salicylanilides with the most robust antimicrobial activity were tested for cytotoxicity in the human hepatocellular liver carcinoma cell line HepG2 (passages 21–24; ECACC, Salisbury, UK) using a standard colorimetric method measuring a tetrazolium salt reduction (CellTiter(R) 96 AQueous One Solution Assay, Promega G3580, Madison, WI, USA).\nThe cells were routinely cultured in Minimum Essentials Eagle Medium (Sigma-Aldrich, Darmstadt, Germany) supplemented with 10% foetal bovine serum (PAA; Biotech, Prague, Czech Republic), 1% of L-glutamine solution (Sigma-Aldrich), and non-essential amino acids solution (Sigma-Aldrich) in a humidified atmosphere containing 5% CO2 at 37 °C. For subculturing, the cells were harvested after trypsin/EDTA (Sigma-Aldrich) treatment at 37 °C. The cells treated with the tested substances were used as experimental groups. Untreated HepG2 cells were used as control groups.\nThe cells were seeded in density 1 × 10^4 cells per well in a 96-well plate with microscopic control. Next day, the cells were treated with each of the tested substances. […] The most of the tested compounds were prepared in incubation concentrations of 0.01–20 µM in triplicates. 4-(Trifluoromethyl)benzoic acid was applied in the concentrations of 10–4,000 µM in triplicates. The following types of controls were included: determination of 100% viability and 0% viability (the cells treated by 10% DMSO), no cell control and vehiculum controls. These checking samples were prepared in triplicates.\nThe treated cells were incubated together with controls at 37 °C for 24 h in 5% CO2 atmosphere. After this time reagent from the kit CellTiter 96 AQueous One Solution Cell Proliferation Assay was added. The CellTiter 96 assay is based on the reduction of tetrazolium salt MTS [3-(4,5-dimethylthiazol-2-yl)-5-(3-carboxymethoxyphenyl)-2-(4-sulfophenyl)-2H-tetrazolium] to water-soluble formazan dye by metabolically active cells. The reduction of the reagent is attributed to availability of NADH or NADPH. The decline in levels of these metabolically important compounds in the cell causes that the production of formazan is reduced. The tested plate was incubated for 2 h at 37 °C and 5% CO2 and after this time, the absorbance was recorded at 490 nm using a 96-well plate reader (TECAN, Infinite M200, Grödig, Austria).\nThe results were expressed as inhibitory concentration which is necessary to inhibit cell viability to 50% from the maximal (control) viability (IC50). A standard toxicological parameter IC50 was calculated in each of the tested substances using GraphPad Prism software (version 5.02; GraphPad Software Inc., San Diego, CA, USA)."}},
  "note": "Read-outs that look alike come from different tables or passages of the source.",
  "data": [
    {"smiles": "O=C(O)c1ccc(C(F)(F)F)cc1", "note": "[CF3-BA, 4-(trifluoromethyl)benzoic acid, reference compound]", "values": [
      {"measurement": "MIC", "setting": "[1]; 330/88, 336 h, 14 d", "result": "> 1000", "unit": "µM"},
      {"measurement": "MIC", "setting": "[1]; 330/88, 504 h, 21 d", "result": "> 1000", "unit": "µM"},
      {"measurement": "MIC", "setting": "M. kansasii", "result": "≥ 250", "unit": "µM"},
      {"measurement": "MIC", "setting": "[2]; 336 h, 14 d", "result": "> 1000", "unit": "µM"},
      {"measurement": "MIC", "setting": "[2]; 504 h, 21 d", "result": "> 1000", "unit": "µM"},
      {"measurement": "MIC", "setting": "[3]; 168 h", "result": 250, "unit": "µM"},
      {"measurement": "MIC", "setting": "[3]; 336 h, 14 d", "result": 1000, "unit": "µM"},
      {"measurement": "MIC", "setting": "[3]; 504 h, 21 d", "result": 1000, "unit": "µM"},
      {"measurement": "susceptibility of other mycobacteria", "setting": "[4]", "result": "completely insusceptible"},
      {"measurement": "MIC", "setting": "[5]", "result": "> 500", "unit": "µM"},
      {"measurement": "MIC", "setting": "[6]; 235/80, 168 h, 7 d", "result": 1000, "unit": "µM"},
      {"measurement": "MIC", "setting": "[6]; 235/80, 336 h, 14 d", "result": "> 1000", "unit": "µM"},
      {"measurement": "MIC", "setting": "[6]; 235/80, 504 h, 21 d", "result": "> 1000", "unit": "µM"},
      {"measurement": "IC50", "setting": "HepG2 cells", "result": 564, "unit": "µM"}
    ]}
  ]
}
